Assay results from patent US20170369523A1, “TEMPLATE-FIXED BETA-HAIRPIN PEPTIDOMIMETICS THAT ARE LIGANDS FOR G-PROTEIN-COUPLED RECEPTORS (GPCRS) AND ARE MODULATORS OF TRANSCRIPTION FACTORS AND COACTIVATORS” (POLYPHOR AG, priority 2008, published 2017).
Where two headings read alike, the source gives them in different places. Bridge positions count the residues as written; N and C are the ends. Square brackets hold non-standard residues; d marks the D form. Peptide text beside a SMILES is read from it. Cha = N[C@@H](CC1CCCCC1)C(=O)O; Orn = NCCC[C@H](N)C(=O)O

T1: human UTR2 receptor (Homo sapiens, UniProt Q9UKP6)
T1 construct: expressed in transfected cells; host or cells: mouse pre-B cell line 300-19
T1 sequence (Q9UKP6 1-389): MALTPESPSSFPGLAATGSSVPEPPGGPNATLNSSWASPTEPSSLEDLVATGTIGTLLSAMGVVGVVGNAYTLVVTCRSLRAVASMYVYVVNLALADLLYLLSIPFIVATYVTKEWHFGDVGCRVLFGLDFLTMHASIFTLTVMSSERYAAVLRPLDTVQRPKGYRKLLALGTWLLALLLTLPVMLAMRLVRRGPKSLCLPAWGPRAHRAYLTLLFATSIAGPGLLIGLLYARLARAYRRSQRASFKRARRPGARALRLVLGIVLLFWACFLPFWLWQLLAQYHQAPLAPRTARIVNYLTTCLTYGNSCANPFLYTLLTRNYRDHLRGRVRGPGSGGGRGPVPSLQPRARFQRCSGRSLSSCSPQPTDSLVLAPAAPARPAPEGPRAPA

T2: human UTR2 receptor (human, UniProt Q9UKP6 1-389)
T2 sequence (looked up): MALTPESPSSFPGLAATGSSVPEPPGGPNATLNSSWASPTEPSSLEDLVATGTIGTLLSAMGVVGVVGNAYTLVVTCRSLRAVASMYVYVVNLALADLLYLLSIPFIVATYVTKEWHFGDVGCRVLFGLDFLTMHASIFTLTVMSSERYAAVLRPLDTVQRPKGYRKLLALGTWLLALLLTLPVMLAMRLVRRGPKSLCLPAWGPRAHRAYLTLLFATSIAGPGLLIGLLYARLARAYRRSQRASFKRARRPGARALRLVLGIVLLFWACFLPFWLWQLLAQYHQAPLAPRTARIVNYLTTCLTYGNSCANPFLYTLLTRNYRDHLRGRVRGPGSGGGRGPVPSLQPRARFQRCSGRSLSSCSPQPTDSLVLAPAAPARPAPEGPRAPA


Assays:
human UTR2 receptor [1] = biological target: T1, human UTR2 receptor; experiment: Ca2+ assay: UTR2 receptor-agonizing and antagonizing activity (calcium mobilization, Flexstation); assay type: cell-based
From the text: 2.3. Ca^2+− Assay: UTR2 Receptor-Agonizing and Antagonizing Activity of the Peptides
The mouse pre-B cell line 300-19 was stably transfected with the cDNA encoding the human UTR2 receptor (GenBank Acc# NM_018949), and expression was confirmed with a positive calcium signal in response to human urotensin (Sigma Aldrich). Increases in intracellular calcium were monitored using a Flexstation 384 (Molecular Devices, Sunnyvale, Calif.). The cells were batch loaded with the Calcium 4 Assay kit (Molecular Devices) in assay buffer (Hanks Balanced salt solution, HBSS, 20 mM HEPES, pH 7.4, 0.1% BSA) for 1 h at room temperature and labeled cells were dispensed into either black 96 well or 384 well assay plates (Greiner). Calcium mobilization induced by urotensin or test compounds was measured in the Flexstation 384 (excitation, 485 nm; emission, 525 nm) for 70 seconds. Agonist activity was determined by direct addition of ligand or peptides, while antagonists were identified by spiking the cells with test compounds prior to urotensin addition. A dose response curve (compound concentration versus % maximum response for urotensin) was determined for each active agonist and antagonist and was fitted to a four parameter logistic equation using SoftmaxPro 4.8 (Molecular Devices), from which EC50% and IC50% values were calculated.

in vitro [2] = assay type: cell-based; details: for GI50 at 48 h: human
Protocol: (§1) The cytotoxicity of the peptides to HELA cells (Acc57) and COS-7 cells (CRL-1651) was determined using the MTT reduction assay. Briefly, the method was as follows: 7000 HELA cells/well and 4500 COS-7 cells/well were seeded and grown in 96-well microtiter plates for 24 h at 37° C. at 5% CO2. Thereafter, time zero (Tz) was determined by MTT reduction (see below). The supernatant of the remaining wells was discarded, and fresh medium and compounds in serial dilutions (12.5, 25 and 50 μM, triplicates) were pipetted into the wells. After incubation of the cells for 48 h at 37° C. at 5% CO2 the supernatant was discarded again and 100 μL MTT reagent (0.5 mg/mL in RPMI1640 and DMEM, respectively)/well was added. Following incubation at 37° C. for 2 h the media were aspirated and the cells were spiked (100 μl isopropanol/well). The absorbance of the solubilized formazan was measured at 595 nm (OD595peptide). For each concentration averages were calculated from triplicates. The percentage of growth was calculated as follows: (OD595peptide-OD595Tz-OD595Empty well)/(OD595Tz-OD595Empty well)×100%. The GI50 (Growth Inhibition) concentrations were calculated for each peptide by using a trend line function for the concentrations (50, 25, 12.5 and 0 μM), the corresponding percentages and the value 50, (=TREND (C50:C0,%50:%0,50).

in vitro [3] = assay type: cell-based; details: for GI50 at 48 h: African green monkey
Protocol: as §1

[4] = test system: human red blood cells (hRBC); assay type: cell-based; details: red cells of human, 1 h
Protocol: The peptides were tested for their hemolytic activity against human red blood cells (hRBC). Fresh hRBC were washed three times with phosphate buffered saline (PBS) and centrifuged for 10 min at 2000×g. Compounds (100 μM) were incubated with 20% hRBC (v/v) for 1 h at 37° C. The final erythrocyte concentration was approximately 0.9×10^9 cells/mL. A value of 0% and 100% cell lyses, respectively, was determined by incubation of hRBC in the presence of PBS alone and 0.1% Triton X-100 in H2O, respectively. The samples were centrifuged, the supernatants were 20-fold diluted in PBS buffer and the optical densities (OD) were measured at 540 nm. The 100% lyses value (OD540H2O) gave an OD540 of approximately 1.3-1.8. Percent hemolysis was calculated as follows: […]

[5] = Plasma stability, human plasma; assay type: in vitro ADME; details: 37° C., sampled up to 240 min
Protocol: (§2) The stability of the peptides in human and mouse plasma was determined by applying the following method: 315 μl/deep well of freshly thawed human plasma (Basler Blutspende-dienst) and mouse plasma (Harlan Sera-Lab, UK), respectively, were spiked with 35 μl/well of compound in PBS (100 μM, triplicate) and incubated at 37° C. At t=0, 15, 30, 60, 120 and 240 min aliquots of 50 μl were transferred to filtration plate wells containing 150 μl/well of acetonitrile. Following shaking for 2 min the occurred suspensions were filtrated by vacuum and finally. 100 μl of each filtrate were transferred to a propylene microtiter plate, and analyzed by LC/MS as follows: Column: Waters, XBridge C18, mobile phases: (A) water+0.1% formic acid and (B) acetonitrile/water, 95/5 (v/v)+0.1% formic acid, gradient: 5%-100% (B) in 2 minutes, electrospray ionization, MRM detection (triple quadrupole). The peak areas were determined and triplicate values were averaged. The stability was expressed in percent of the initial value at t=0. (tx/t0×100). By using the TREND function of EXCEL (Microsoft Office 2003) T1/2 were determined.

[6] = Plasma stability, mouse plasma; assay type: in vitro ADME; details: 37° C., sampled up to 240 min
Protocol: as §2

human UTR2 receptor [7] = biological target: T2, human UTR2 receptor; experiment: cell-based or functional assay

Row | EC50% (Ca2+ assay, agonist activity) (human UTR2 receptor [7]) | Molecule | EC50 (human UTR2 receptor [1]) | GI50 (in vitro [2]) | GI50 (in vitro [3]) | Hemolysis at 100 μM [%] [4] | Plasmastability human pl. T1/2 [5] | Plasmastability mouse pl. T1/2 [6] | GI50 at 48 h (in vitro [2]) | GI50 at 48 h (in vitro [3])
1 | – | CC(C)C[C@@H]1NC(=O)[C@@H]2CSSC[C@H](NC(=O)[C@H](CC(=O)O)NC(=O)[C@@H]3CCCN3C(=O)[C@@H](CO)NC1=O)C(=O)N[C@@H](Cc1ccccc1)C(=O)N[C@@H](Cc1c[nH]c3ccccc13)C(=O)N[C@@H](CCCCN)C(=O)N[C@@H](Cc1ccc(O)cc1)C(=O)N2 [Ex. 28] | < 0.002 µM | > 50 µM | > 50 µM | 0% | 4 h | 4 h | – | –
2 | – | CC(C)C[C@@H]1NC(=O)[C@@H]2CSSC[C@H](NC(=O)[C@H](CC(=O)O)NC(=O)[C@@H]3CCCN3C(=O)[C@@H](CCC(=O)O)NC1=O)C(=O)N[C@@H](Cc1ccccc1)C(=O)N[C@@H](Cc1c[nH]c3ccccc13)C(=O)N[C@@H](CCCCN)C(=O)N[C@@H](Cc1ccc(O)cc1)C(=O)N2 [compound 30] | < 0.002 µM | > 50 µM | > 50 µM | 0% | 4 h | 4 h | – | –
3 | – | CC(C)[C@@H]1NC(=O)[C@@H]2CSSC[C@H](NC(=O)[C@H](CC(=O)O)NC(=O)[C@@H]3CCCN3C(=O)[C@H]3CCCN3C1=O)C(=O)N[C@@H](Cc1ccccc1)C(=O)N[C@@H](Cc1c[nH]c3ccccc13)C(=O)N[C@@H](CCCCN)C(=O)N[C@@H](Cc1ccc(O)cc1)C(=O)N2 [compound 31] | < 0.002 µM | > 50 µM | > 50 µM | 0% | 4 h | 4 h | – | –
4 | – | CC(C)[C@@H]1NC(=O)[C@@H]2CSSC[C@H](NC(=O)[C@H](CC(=O)O)NC(=O)[C@@H]3CCCN3C(=O)[C@H]3CCCN3C1=O)C(=O)N[C@@H](Cc1ccccc1)C(=O)N[C@H](Cc1c[nH]c3ccccc13)C(=O)N[C@@H](CCCN)C(=O)N[C@@H](Cc1ccc(O)cc1)C(=O)N2 [compound 32] (cyclo(DCF[dW][Orn]YCV[dP]P); disulfide 2-7) | – | – | – | 0% | 4 h | 4 h | > 50 µM | > 50 µM
5 | – | CC(C)C[C@@H]1NC(=O)[C@@H]2CSSC[C@H](NC(=O)[C@H](CC(=O)O)NC(=O)[C@@H]3CCCN3C(=O)[C@H]3CCCN3C1=O)C(=O)N[C@@H](Cc1ccc(O)cc1)C(=O)N[C@@H](Cc1c[nH]c3ccccc13)C(=O)N[C@@H](CCCCN)C(=O)N[C@@H](Cc1ccc(O)cc1)C(=O)N2 [compound 33] | < 0.002 µM | > 50 µM | > 50 µM | 0% | 4 h | 4 h | – | –
6 | – | CC(C)[C@@H]1NC(=O)[C@@H]2CSSC[C@H](NC(=O)[C@H](CC(=O)O)NC(=O)[C@@H]3CCCN3C(=O)[C@H]3CCCN3C1=O)C(=O)N[C@@H](Cc1ccccc1)C(=O)N[C@H](Cc1c[nH]c3ccccc13)C(=O)N[C@@H](CCCCN)C(=O)N[C@@H](Cc1ccc(O)cc1)C(=O)N2 [compound 34] | < 0.002 µM | > 50 µM | > 50 µM | 0% | 4 h | 4 h | – | –
7 | – | NCCCC[C@@H]1NC(=O)[C@H](Cc2c[nH]c3ccccc23)NC(=O)[C@H](Cc2ccccc2)NC(=O)[C@@H]2CSSC[C@H](NC(=O)[C@H](Cc3ccc(O)cc3)NC1=O)C(=O)N[C@@H](CC1CCCCC1)C(=O)N1CCC[C@@H]1C(=O)N1CCC[C@H]1C(=O)N[C@@H](CC(=O)O)C(=O)N2 [compound 35] (cyclo(DCFWKYC[Cha][dP]P); disulfide 2-7) | – | – | – | 0% | 4 h | 4 h | > 50 µM | > 50 µM
8 | < 0.002 µM | cyclo(DCYWKYCL[dP]P) (disulfide 2-7; SMILES CC(C)C[C@@H]1NC(=O)[C@@H]2CSSC[C@H](NC(=O)[C@H](CC(=O)O)NC(=O)[C@@H]3CCCN3C(=O)[C@H]3CCCN3C1=O)C(=O)N[C@@H](Cc1ccc(O)cc1)C(=O)N[C@@H](Cc1c[nH]c3ccccc13)C(=O)N[C@@H](CCCCN)C(=O)N[C@@H](Cc1ccc(O)cc1)C(=O)N2) [Ex. 33] | – | – | – | – | – | – | – | –
9 | < 0.002 µM | cyclo(DCFWKYCL[dS]P) (disulfide 2-7; SMILES CC(C)C[C@@H]1NC(=O)[C@@H]2CSSC[C@H](NC(=O)[C@H](CC(=O)O)NC(=O)[C@@H]3CCCN3C(=O)[C@@H](CO)NC1=O)C(=O)N[C@@H](Cc1ccccc1)C(=O)N[C@@H](Cc1c[nH]c3ccccc13)C(=O)N[C@@H](CCCCN)C(=O)N[C@@H](Cc1ccc(O)cc1)C(=O)N2) [Ex. 28] | – | – | – | – | – | – | – | –
10 | < 0.002 µM | cyclo(DCFWKYCV[dP]P) (disulfide 2-7) [Ex. 31] | – | – | – | – | – | – | – | –
11 | < 0.002 µM | cyclo(DCFWKYCL[dE]P) (disulfide 2-7; SMILES CC(C)C[C@@H]1NC(=O)[C@@H]2CSSC[C@H](NC(=O)[C@H](CC(=O)O)NC(=O)[C@@H]3CCCN3C(=O)[C@@H](CCC(=O)O)NC1=O)C(=O)N[C@@H](Cc1ccccc1)C(=O)N[C@@H](Cc1c[nH]c3ccccc13)C(=O)N[C@@H](CCCCN)C(=O)N[C@@H](Cc1ccc(O)cc1)C(=O)N2) [Ex. 30] | – | – | – | – | – | – | – | –
12 | < 0.002 µM | cyclo(DCF[dW]KYCV[dP]P) (disulfide 2-7) [Ex. 34] | – | – | – | – | – | – | – | –
